Test results from patent US20250326769A1, “HETEROAROMATIC MACROCYCLIC ETHER CHEMOTHERAPEUTIC AGENTS” (Nuvalent, Inc., priority 2022, published 2025).

Assays:
Assay type in all cases: cell-based
Ba/F3 ETV6-TRKB = Ba/F3 ETV6-TRKB (Homo sapiens, UniProt Q16620); experiment: Ba/F3 cell proliferation assay, ETV6-TRKB; details: Ba/F3 stable cells, 72 hours, CellTiter-Glo; read-out: ETV6-TRKB IC50
Text: (§1) Genes encoding EML4-ALK v1 (variant 1), EML4-ALK v1 G1202R, EML4-ALK v1 I1171IN, EML4-ALK v1 D1203N, EML4-ALK v1 I1171N/D1203N, and ETV6-TRKB were synthesized at GeneRay, cloned into the retroviral construct pMSCV-puro (Biovector), and packaged into retroviral particles. The virus was used to infect Ba/F3 cells (RIKEN) at multiplicity of infection=1 for 1 day. Infected cells were rescued in media (RPMI-1640 with 10% fetal bovine serum and 1% streptomycin and penicillin) supplemented with mouse IL-3 (10 ng/mL) for 2 days, and stable cell lines were selected by IL-3 withdrawal and puromycin (0.8 μg/mL) for 7 days. Monoclones were selected by single-cell dilution in IL-3-free medium containing puromycin (0.8 μg/mL). Transformation of desired genes was confirmed by Sanger sequencing and western blot using the following antibodies: ALK (CST #3633) and pan-TRK (Abcam #76291).
(§2) Stable cells were plated in a 384-well plate. Test compounds were then added in a 3-fold dilution series and incubated for 72 hours. CellTiter-Glo reagent (Promega) was added. Luminescence was measured on a plate reader. Half-maximal inhibitory concentration (ICso) was calculated from percent inhibition and inhibitor concentration using four-parameter logistic regression. Compound potency can be interpreted by binning IC50 values: bin A for high potency, 0.1 nM IC50<50 nM; bin B for medium potency, 50 nM<IC50<500 nM; and bin C for low potency, IC50>500 nM. […] Exemplary data is given in Table 4 (nd is not determined).
(§3) Ba/F3 proliferation is driven by the transduced oncogenes in the same way that cancer cell proliferation in humans is driven by the expression of equivalent oncogenes.

[1] = molecular target: Ba/F3 EML4-ALK v1 I1171N/D1203N (Homo sapiens (Human), UniProt Q9HC35+Q9UM73, D1203N/I1171N); experiment: Ba/F3 cell proliferation assay, EML4-ALK v1 I1171N/D1203N; details: for IC50: Ba/F3 stable cells, 72 hours, CellTiter-Glo; for ETV6-TRKB / EML4-ALK v1 I1171N/D1203N / Selectivity for Ba/F3 EML4-ALK v1 I1171N-D1203N IC50 over Ba/F3 ETV6-TRKB IC50: TRKB selectivity, ratio of Ba/F3 IC50 values; for Selectivity for Ba/F3 EML4-ALK v1 I1171N-D1203N IC50 over Ba/F3 ETV6-TRKB IC50: Table 6 bins
Text: as §1, §2, §3
(§4) TRKB selectivity was calculated by dividing a compound's TRKB potency by its primary target potency (e.g., ETV6-TRKB IC50/EML4-ALK v1 IC50). Compound selectivity can be interpreted by binning ratio values: bin A for very high selectivity, ratio≥30-fold; bin B for high selectivity, ratio≥10-fold but<30; bin C for moderate selectivity, ratio≥1 but<10; and bin D for low selectivity, ratio<1. […] (nd=not determined).
Additional exemplified compounds were also tested against ALK-INDN and TRKB. The TRKB selectivity was calculated by dividing a compound's TRKB potency by its primary target potency (e.g., ETV6-TRKB IC50/EMIL4-ALK I1171N-D1203N v1 IC50). Compound selectivity can be interpreted by binning ratio values: bin AA for the selectivity with the ratio≥30-fold; bin BB for the selectivity with the ratio≥10-fold but<30; bin CC for the selectivity with the ratio≥5 but<10; bin DD for the selectivity with the ratio≥1 but<5; and bin EE for the selectivity with the ratio<1.

Ba/F3 EML4-ALK v1 I1171N = Ba/F3 EML4-ALK v1 I1171N (Homo sapiens (Human), UniProt Q9HC35+Q9UM73, I1171N); experiment: Ba/F3 cell proliferation assay, EML4-ALK v1 I1171N; details: for IC50: Ba/F3 stable cells, 72 hours, CellTiter-Glo; for ETV6-TRKB / EML4-ALK v1 I1171N: TRKB selectivity, ratio of Ba/F3 IC50 values
Text: as §1, §2, §3, §4

Ba/F3 EML4-ALK v1 I1171N, sequence (Q9UM73 other isoform, or with tags, fused parts or gaps I1171N): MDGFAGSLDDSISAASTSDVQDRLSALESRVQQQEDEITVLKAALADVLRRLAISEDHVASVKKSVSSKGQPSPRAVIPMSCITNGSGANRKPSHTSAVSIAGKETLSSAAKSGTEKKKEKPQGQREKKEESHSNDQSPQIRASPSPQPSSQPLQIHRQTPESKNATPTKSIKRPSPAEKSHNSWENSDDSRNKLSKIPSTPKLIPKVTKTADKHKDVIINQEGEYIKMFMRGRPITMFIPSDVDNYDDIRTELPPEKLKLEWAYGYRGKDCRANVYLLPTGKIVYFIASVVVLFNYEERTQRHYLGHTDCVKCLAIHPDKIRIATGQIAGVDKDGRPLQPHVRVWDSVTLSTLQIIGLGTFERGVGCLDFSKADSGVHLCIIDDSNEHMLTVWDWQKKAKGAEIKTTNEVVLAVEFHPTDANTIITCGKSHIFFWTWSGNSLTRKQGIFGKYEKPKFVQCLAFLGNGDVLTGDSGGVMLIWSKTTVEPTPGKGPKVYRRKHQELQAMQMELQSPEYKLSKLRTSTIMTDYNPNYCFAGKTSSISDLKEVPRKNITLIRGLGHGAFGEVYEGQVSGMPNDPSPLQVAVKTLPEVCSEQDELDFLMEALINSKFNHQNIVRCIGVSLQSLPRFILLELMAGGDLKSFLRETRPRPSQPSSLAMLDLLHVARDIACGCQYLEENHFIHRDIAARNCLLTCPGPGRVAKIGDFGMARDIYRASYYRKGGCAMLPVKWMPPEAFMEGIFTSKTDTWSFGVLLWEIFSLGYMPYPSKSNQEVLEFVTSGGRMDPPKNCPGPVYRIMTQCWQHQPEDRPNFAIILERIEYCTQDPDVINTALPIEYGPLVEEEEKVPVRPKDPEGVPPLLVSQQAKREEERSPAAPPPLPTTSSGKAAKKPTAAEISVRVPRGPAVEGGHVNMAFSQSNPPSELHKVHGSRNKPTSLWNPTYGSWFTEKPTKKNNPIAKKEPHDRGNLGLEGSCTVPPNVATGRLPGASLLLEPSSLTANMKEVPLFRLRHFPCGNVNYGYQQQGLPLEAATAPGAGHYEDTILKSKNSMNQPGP
Ba/F3 EML4-ALK v1 I1171N/D1203N, sequence (Q9UM73 other isoform, or with tags, fused parts or gaps I1171N/D1203N): as the sequence (Q9UM73 other isoform, or with tags, fused parts or gaps I1171N) above, with D642N counted along it
Ba/F3 ETV6-TRKB, sequence (Q16620 32-822 limits assumed, stated change not applied): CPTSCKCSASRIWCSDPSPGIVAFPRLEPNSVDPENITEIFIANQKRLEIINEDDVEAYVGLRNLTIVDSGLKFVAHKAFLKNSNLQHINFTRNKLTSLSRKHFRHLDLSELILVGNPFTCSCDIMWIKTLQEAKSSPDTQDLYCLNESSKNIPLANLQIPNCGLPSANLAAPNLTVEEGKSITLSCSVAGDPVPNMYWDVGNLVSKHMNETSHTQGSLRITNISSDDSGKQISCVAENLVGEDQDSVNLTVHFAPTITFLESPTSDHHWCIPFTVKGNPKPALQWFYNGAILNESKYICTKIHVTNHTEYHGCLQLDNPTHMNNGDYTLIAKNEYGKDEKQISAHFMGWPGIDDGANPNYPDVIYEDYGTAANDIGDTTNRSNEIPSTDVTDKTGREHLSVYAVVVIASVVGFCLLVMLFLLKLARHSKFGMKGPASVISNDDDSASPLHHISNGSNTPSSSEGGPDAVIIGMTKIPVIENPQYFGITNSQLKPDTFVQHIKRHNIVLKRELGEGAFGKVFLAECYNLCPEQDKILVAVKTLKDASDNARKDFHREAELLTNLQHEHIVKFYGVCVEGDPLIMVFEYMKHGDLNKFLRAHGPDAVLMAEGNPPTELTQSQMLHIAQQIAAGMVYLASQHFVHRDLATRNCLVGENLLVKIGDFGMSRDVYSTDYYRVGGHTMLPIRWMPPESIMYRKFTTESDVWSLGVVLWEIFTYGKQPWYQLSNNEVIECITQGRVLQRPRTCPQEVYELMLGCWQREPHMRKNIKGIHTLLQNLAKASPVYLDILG

SMILES	IC50 (Ba/F3 ETV6-TRKB) [nM]	IC50 [1] [nM]	IC50 (Ba/F3 EML4-ALK v1 I1171N) [nM]	ETV6-TRKB / EML4-ALK v1 I1171N/D1203N [1]	ETV6-TRKB / EML4-ALK v1 I1171N (Ba/F3 EML4-ALK v1 I1171N)	Selectivity for Ba/F3 EML4-ALK v1 I1171N-D1203N IC50 over Ba/F3 ETV6-TRKB IC50 [1]
CCn1nc2c(c1C#N)-c1cnc(N)c(c1)O[C@H](C)c1cc(F)ccc1-c1ncccc1C2=O [Example 50, (R)-23-amino-4-ethyl-17-fluoro-20-methyl-7-oxo-21-oxa-4,5,12,24-tetraazapentacyclo[20.3.1.0^2,^6.0^8,^13.0^14,^19]hexacosa-1(25),2,5,8,10,12,14,16,18,22(26),23-undecaene-3-carbonitrile]	50 to 500	0.1 to 50	0.1 to 50	A (bin A for very high selectivity, ratio≥30-fold)	A (bin A for very high selectivity, ratio≥30-fold)	AA (bin AA for the selectivity with the ratio≥30-fold)
C[C@H]1Oc2cc(cnc2N)-c2c(nn(C)c2C#N)C(=O)c2cccnc2-c2c(F)cc(F)cc21 [Example 21, (R)-23-amino-15,17-difluoro-4-methyl-20-methyl-7-oxo-21-oxa-4,5,12,24-tetraazapentacyclo[20.3.1.0^2,^6.0^8,^13.0^14,^19]hexacosa-1(25),2,5,8,10,12,14,16,18,22(26),23-undecaene-3-carbonitrile]	50 to 500	0.1 to 50	0.1 to 50	A (bin A for very high selectivity, ratio≥30-fold)	B (bin B for high selectivity, ratio≥10-fold but<30)	AA (bin AA for the selectivity with the ratio≥30-fold)
CCn1nc(C(=O)N(C)C)c2c1-c1cnc(N)c(c1)O[C@H](C)c1cc(F)cc(F)c1-c1ncccc1C2 [Example 46, N,N-dimethyl-(R)-23-amino-3-ethyl-15,17-difluoro-20-methyl-21-oxa-3,4,12,24-tetraazapentacyclo[20.3.1.0^2,^6.0^8,^13.0^14,^19]hexacosa-1(25),2(6),4,8(13),9,11,14,16,18,22(26),23-undecaene-5-carboxamide]	50 to 500	0.1 to 50	50 to 500	B (bin B for high selectivity, ratio≥10-fold but<30)	C (bin C for moderate selectivity, ratio≥1 but<10)	
C[C@H]1Oc2cc(cnc2N)-c2c(c(C#N)nn2CC2CC2)Cc2cn(C)nc2-c2ccc(F)cc21 [Example 1, (19R)-22-amino-3-(cyclopropylmethyl)-16-fluoro-10,19-dimethyl-20-oxa-3,4,10,11,23-pentaazapentacyclo[19.3.1.0^2,6.0^8,12.0^13,18]pentacosa-1(24),2(6),4,8,11,13,15,17,21(25),22-decaene-5-carbonitrile]	> 500	> 500	50 to 500	C (bin C for moderate selectivity, ratio≥1 but<10)	B (bin B for high selectivity, ratio≥10-fold but<30)	
CCn1ncc2c1-c1cnc(N)c(c1)O[C@H](C)c1cc(F)ccc1-c1ncccc1O2 [Example 14, (R)-3-ethyl-17-fluoro-20-methyl-7,21-dioxa-3,4,12,24-tetraazapentacyclo[20.3.1.0^2,^6.0^8,^13.0^14,^19]hexacosa-1(25),2(6),4,8(13),9,11,14,16,18,22(26),23-undecaen-23-ylamine]	0.1 to 50	50 to 500	0.1 to 50			
Cc1ccc2c(n1)-c1ccc(F)cc1[C@@H](C)Oc1cc(cnc1N)-c1c(C#N)nn(C(=O)N(C)C)c1C2 [Example 72, N,N-dimethyl-(R)-23-amino-3-cyano-17-fluoro-11,20-dimethyl-21-oxa-4,5,12,24-tetraazapentacyclo[20.3.1.0^2,^6.0^8,^13.0^14,^19]hexacosa-1(25),2(6),3,8(13),9,11,14,16,18,22(26),23-undecaene-5-carboxamide]	> 500	50 to 500	50 to 500	B (bin B for high selectivity, ratio≥10-fold but<30)	A (bin A for very high selectivity, ratio≥30-fold)	
C[C@H]1Oc2cc(cnc2N)-c2c(cnn2CC2CC2)C(=O)c2cccnc2-c2ccc(F)cc21 [Example 29, (R)-23-amino-3-(cyclopropylmethyl)-17-fluoro-20-methyl-21-oxa-3,4, 12,24-tetraazapentacyclo[20.3.1.0^2,^6.0^8,^13.0^14,^19]hexacosa-1(25),2(6),4,8(13),9,11,14,16,18,22(26),23-undecaen-7-one]	> 500	> 500	> 500	B (bin B for high selectivity, ratio≥10-fold but<30)	B (bin B for high selectivity, ratio≥10-fold but<30)	BB (bin BB for the selectivity with the ratio≥10-fold but<30)
CC(C)n1nc2c(c1C#N)-c1cnc(N)c(c1)O[C@H](C)c1cc(F)ccc1-c1ncccc1C2=O [Example 51, (R)-23-amino-17-fluoro-4-isopropyl-20-methyl-7-oxo-21-oxa-4,5,12,24-tetraazapentacyclo[20.3.1.0^2,^6.0^8,^13.0^14,^19]hexacosa-1(25),2,5,8,10,12,14,16,18,22(26),23-undecaene-3-carbonitrile]	50 to 500	0.1 to 50	0.1 to 50	A (bin A for very high selectivity, ratio≥30-fold)	A (bin A for very high selectivity, ratio≥30-fold)	AA (bin AA for the selectivity with the ratio≥30-fold)

More lines, main results first:

IC50 (Ba/F3 ETV6-TRKB) [nM]	IC50 [1] [nM]	IC50 (Ba/F3 EML4-ALK v1 I1171N) [nM]	SMILES	ETV6-TRKB / EML4-ALK v1 I1171N/D1203N [1]	ETV6-TRKB / EML4-ALK v1 I1171N (Ba/F3 EML4-ALK v1 I1171N)	Selectivity for Ba/F3 EML4-ALK v1 I1171N-D1203N IC50 over Ba/F3 ETV6-TRKB IC50 [1]
> 500	0.1 to 50	0.1 to 50	C[C@H]1Oc2cc(cnc2N)-c2c(nn(C)c2C#N)C(=O)c2scnc2-c2c(F)cc(F)cc21 [Example 81, (R)-22-amino-14,16-difluoro-4-methyl-19-methyl-7-oxo-20-oxa-9-thia-4,5,11,23-tetraazapentacyclo[19.3.1.0^2,^6.0^8,^12.0^13,^18]pentacosa-1(24),2,5,8(12),10,13,15,17,21(25),22-decaene-3-carbonitrile]	A (bin A for very high selectivity, ratio≥30-fold)	A (bin A for very high selectivity, ratio≥30-fold)	
50 to 500	0.1 to 50	0.1 to 50	COCCn1nc2c(c1C#N)-c1cnc(N)c(c1)O[C@H](C)c1cc(F)ccc1-c1ncccc1C2=O [Example 52, (R)-23-amino-17-fluoro-4-(2-methoxyethyl)-20-methyl-7-oxo-21-oxa-4,5,12,24-tetraazapentacyclo[20.3.1.0^2,^6.0^8,^13.0^14,^19]hexacosa-1(25),2,5,8,10,12,14,16,18,22(26),23-undecaene-3-carbonitrile]	A (bin A for very high selectivity, ratio≥30-fold)	A (bin A for very high selectivity, ratio≥30-fold)	AA (bin AA for the selectivity with the ratio≥30-fold)
50 to 500	0.1 to 50	0.1 to 50	C[C@H]1Oc2cc(cnc2N)-c2c(C3CCC3)nn(C(=O)N(C)C)c2Cc2cccnc2-c2ccc(F)cc21 [Example 57, (R)-5-(N,N-dimethylcarbamoyl)-3-cyclobutyl-17-fluoro-20-methyl-21-oxa-4,5,12,24-tetraazapentacyclo[20.3.1.0^2,^6.0^8,^13.0^14,^19]hexacosa-1(25),2(6),3,8(13),9,11,14,16,18,22(26),23-undecaen-23-ylamine]			
50 to 500	0.1 to 50	0.1 to 50	C[C@H]1Oc2nc(cnc2N)-c2c(nn(C)c2C#N)C(=O)c2cccnc2-c2c(F)cc(F)cc21 [Example 82, (R)-23-amino-15,17-difluoro-4-methyl-20-methyl-7-oxo-21-oxa-4,5,12,24,26-pentaazapentacyclo[20.3.1.0^2,6.0^8,13.0^14,19]hexacosa-1(25),2,5,8(13),9,11,14,16,18,22(26),23-undecaene-3-carbonitrile]	A (bin A for very high selectivity, ratio≥30-fold)	C (bin C for moderate selectivity, ratio≥1 but<10)	
